Source: PubChem BioAssay (NCI)
Several values for one entry are separate records, joined by “and”; a condition that tells them apart may be missing. Equal values may be shown once.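 Cultured in 96-well plates, cells were exposed to test compound for 48 hours across five concentrations. At the GI50, growth is halved. Definition used: TGI = concentration required for complete inhibition of growth.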

Columns and labels:
Assay in all cases: growth of human tumour cells (NCI), 48 h
786-0 renal = system: 786-0 renal
CCRF-CEM leukemia = system: CCRF-CEM leukemia
EKVX NSCLC = system: EKVX NSCLC
HL-60(TB) leukemia = system: HL-60(TB) leukemia
KM12 colon = system: KM12 colon
NCI-H226 lung = system: NCI-H226 lung
NCI-H460 lung = system: NCI-H460 lung
PC-3 prostate = system: PC-3 prostate
RXF 393 renal = system: RXF 393 renal
SW-620 colon = system: SW-620 colon

SMILES | GI50 (786-0 renal) | TGI (786-0 renal) | GI50 (CCRF-CEM leukemia) | TGI (CCRF-CEM leukemia) | GI50 (EKVX NSCLC) | TGI (EKVX NSCLC) | GI50 (HL-60(TB) leukemia) | TGI (HL-60(TB) leukemia) | GI50 (KM12 colon) | TGI (KM12 colon) | GI50 (NCI-H226 lung) | TGI (NCI-H226 lung) | GI50 (NCI-H460 lung) | TGI (NCI-H460 lung) | GI50 (PC-3 prostate) | TGI (PC-3 prostate) | GI50 (RXF 393 renal) | TGI (RXF 393 renal) | GI50 (SW-620 colon) | TGI (SW-620 colon)
NCCOc1ccccc1/C=C1\c2ccccc2-c2ccc([N+](=O)[O-])cc21 | 1.7 µM | 3.23 µM | 1.08 µM | 2.54 µM | 1.55 µM | 2.99 µM | 1.54 µM | 3.07 µM | 1.55 µM | 2.94 µM | 1.73 µM | 3.48 µM | 0.488 µM | 1.66 µM | 1.52 µM | 2.96 µM | 1.6 µM | 3.1 µM | 1.09 µM | 2.43 µM
C[n+]1c(-c2ccc(/C=N/NC(=O)c3ccc(C(=O)N/N=C/c4ccc(-c5cn6ccccc6[n+]5C)cc4)cc3)cc2)cn2ccccc21 | 126 µM | 53.7 µM and 252 µM | 209 µM | > 50 µM and 353 µM | > 1000 µM | > 1000 µM | 2.37 µM | 186 µM | > 1000 µM | > 1000 µM | 124 µM | 283 µM | > 1000 µM | > 1000 µM | 169 µM | 306 µM | 174 µM | > 87.2 µM and 312 µM | > 1000 µM | > 1000 µM
C/C(=N\N=C(\[Se])N(C)C)c1ccccn1 |  | 18.3 µM |  | 2.1 µM |  | 11.6 µM |  | 0.343 µM |  | 17.9 µM |  | 5.27 µM |  | 4.17 µM |  | 13.9 µM |  | 6.23 µM |  | 15.2 µM
O=C1C(=O)c2ccccc2C(O)=C1CCCc1ccc(C2CCCCCC2)cc1 | 0.465 µM | 17 µM | 1.16 µM | > 100 µM | 0.939 µM | 50.6 µM | 0.698 µM | 11.1 µM | 0.903 µM | 17.2 µM | 2.2 µM | 31.7 µM | 0.361 µM | 13.4 µM | 0.542 µM | > 42.4 µM | 10.2 µM | 41.7 µM | 0.576 µM | 33.2 µM
NC(N)=Nc1nc2ccc([N+](=O)[O-])cc2[nH]1 |  | > 100 µM |  | > 100 µM |  | > 100 µM |  | > 100 µM |  | > 100 µM |  | > 100 µM |  | > 100 µM |  | > 100 µM |  | > 100 µM |  | > 100 µM
Cc1ccc(C2=C(c3ccccc3)C(c3ccccc3)Oc3ccc(C)cc32)cc1 (stereo not given) | 2.17 µM | 4.74 µM | 13.8 µM | 39 µM | 3.2 µM | 12.8 µM | 11 µM | 40.7 µM | 5.5 µM | 23.6 µM | 15.8 µM | 37.9 µM | 7.1 µM | 39.9 µM | 12.8 µM | 34.4 µM | 3.37 µM | 13.3 µM | 3.79 µM | 13.2 µM
